Values quoted from earlier work, collected in US20220212015A1, “SURGICAL SYSTEM AND METHODS OF USE” (priority 2021, published 2022).

Test system: myofibroblast formation
Settings: Ajmal et al. (2003)

O=S(=O)([O-])CCS.[Na+] [MESNA, sodium 2-mercaptoethane sulfonate]
effect on myofibroblast formation: diminish myofibroblast formation
